PubChem BioAssay (NCI)
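All cell lines were grown in 96-well plates and treated with compound for 48 hours. TGI: concentration producing complete growth inhibition.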

Assays:
Experiment in all cases: NCI-60 cell line screen, 48 h
[1] = system: IGROV1 ovarian
[2] = system: T-47D breast
[3] = system: MALME-3M melanoma
[4] = system: SF-539 CNS
[5] = system: UO-31 renal
[6] = system: EKVX NSCLC
[7] = system: UACC-257 melanoma
[8] = system: DU-145 prostate
[9] = system: OVCAR-3 ovarian
[10] = system: HCT-116 colon
[11] = system: OVCAR-4 ovarian
[12] = system: NCI-H460 lung
[13] = system: BT-549 breast
[14] = system: SK-OV-3 ovarian
[15] = system: SF-295 CNS
[16] = system: SN12C renal
[17] = system: CCRF-CEM leukemia
[18] = system: SK-MEL-28 melanoma
[19] = system: CAKI-1 renal
[20] = system: SNB-75 CNS

Structure (SMILES)	TGI [1] [µM]	TGI [2] [µM]	TGI [3] [µM]	TGI [4] [µM]	TGI [5] [µM]	TGI [6] [µM]	TGI [7] [µM]	TGI [8] [µM]	TGI [9] [µM]	TGI [10] [µM]	TGI [11] [µM]	TGI [12] [µM]	TGI [13] [µM]	TGI [14] [µM]	TGI [15] [µM]	TGI [16] [µM]	TGI [17] [µM]	TGI [18] [µM]	TGI [19] [µM]	TGI [20] [µM]
CC(=O)NCCCCN(CCCNC(C)=O)C(=O)CNS(=O)(=O)c1cccc2c(N(C)C)cccc12	> 100	> 100	> 100	> 100	> 100	> 100	> 100	> 100	> 100	> 100	> 100	> 100	> 100	> 100	> 100	> 100	> 100	> 100	–	–
CCC/C(Cl)=N/OC(=O)Nc1cc(C(F)(F)F)ccc1OC	30.7	15.6	7.34	28.6	29.9	19.9	30.9	30	30.3	22.8	9.75	36.5	28.8	21.8	32.3	27.4	> 20.7	28.3	9.01	28.5
CCOC(=O)c1ccc(C(=O)n2ccnc2)[nH]1	> 100	> 100	> 100	–	> 100	> 100	> 100	> 100	> 100	> 100	> 100	> 100	> 100	–	> 100	> 100	> 100	> 100	> 100	> 100
C=C1[C@H](OCC(C)C)[C@@H](O)[C@@H](OC(=O)c2cccnc2)C(C)(C)/C=C/[C@H](C)[C@H](OC(C)=O)[C@@]2(O)C[C@@](C)(OC(C)=O)[C@H](OC(=O)c3ccccc3)[C@@H]2[C@H]1OC(C)=O	> 5	> 5	1.46	1.58	> 1.24	> 5	> 5	> 5	> 3.67	> 5	> 5	1.52	> 4.23	> 5	> 4.14	> 5	> 2.82	> 5	> 5	> 2.87
COC(=O)c1ccccc1CC1Cc2cc3c(cc2C1=O)CCC3 (configuration not stated)	> 100	69.9	69.2	43.1	86.3	> 100	71.5	> 100	> 76.5	29.9	> 93.3	> 71.4	31.8	> 71.8	77.4	> 67.2	62.7	> 100	> 100	55.7
O/N=C(/CC(O)(C(F)(F)F)C(F)(F)F)c1ccccc1	> 10	> 10	> 10	> 10	–	> 10	> 10	> 10	> 10	> 10	> 10	> 10	> 10	> 10	> 10	> 10	> 10	> 10	> 10	> 10
CCCCN1C(=O)c2c(Br)sc(Br)c2C1=O	> 100	> 100	> 100	69.1	> 100	> 100	> 100	> 100	–	65.6	91.1	> 100	> 100	> 100	> 100	95.8	> 100	> 100	> 100	90.5
CON(C)C(=O)[C@H]1C[C@@]1(C)CO	> 100	> 100	> 100	–	> 100	> 100	> 100	> 100	> 100	> 100	> 100	> 100	> 100	> 100	> 100	> 100	> 100	> 100	> 100	> 100
O=C(O)C1(Cc2ccccc2)Cc2cc3c(cc2C1)CCC3	> 100	> 100	> 100	> 100	> 100	> 100	> 100	> 100	> 100	> 100	> 100	> 100	> 100	> 100	> 100	> 100	> 100	> 100	–	> 100
CC[C@]12C=CCN3CCC4(c5cc([C@@]6(C(=O)OC)CC7CN(CCc8c6[nH]c6ccccc86)C[C@@H]6CCCC[C@H]76)c(OC)cc5N(C)C4[C@](O)(C(=O)OC)C1OC(C)=O)[C@@H]32 (some centres not stated)	–	38.5	4.95	< 0.01	8.58	22.8	–	14.8	–	1.73	19.3	0.0425	21.2	–	–	18.3	> 37.1	17.1	16.7	–
CN(C)C=Nc1c2ccccc2nc2ccccc12	26.3	9.67	12.7	10.4	29.5	29.1	9.3	39.7	13.4	17.8	21.1	–	13.2	23.4	21.6	11.9	21.2	5.42	> 100	13.6
COc1ccc2[nH]c3c(c2c1)CC(=O)N1CCCC(CC3O)C1 (configuration not stated)	> 100	> 100	> 100	> 100	> 100	–	> 100	> 100	–	> 100	> 100	> 100	> 100	> 100	> 100	> 100	–	> 100	> 100	> 100
